Assay results: patent US20240174980A1, “PROCESS FOR MANUFACTURE OF A COMPOSITION FOR THE TREATMENT OF OSTEOARTHRITIS IN A SUBJECT” (STEM CELLX EUROPE KFT, priority 2021, published 2024)

System: GADD45, CEBPb and MMP13 expression in differentiating canine MSCs
Experiment: Expression of hypertrophic chondrocyte markers (relative RNA levels) during chondrogenic differentiation
Assay type: cell-based
Conditions: relative RNA levels at days 10 and 24 of chondrogenic differentiation
Procedure: (§1) 1B depicts the experiment in which we added 30 ng/ml kynurenine to the differentiating MSCs to examine its effect on the markers of hypertrophic chondrocytes. In the experiment, we measured the expression of the two main regulatory transcription factors of hypertrophic chondrocyte differentiation, factors GADD45 and CEBPb, and of their target, matrix metalloproteinase-13 (MMP13), by measuring their relative RNA levels on days 10 (early) and 24 (mature) of chondrogenic differentiation.
as §1, with “2B” for “1B”, “50” for “30”, “THBS1” for “kynurenine”
During the analysis, first we quantified the levels of KYNA produced in canine AD-MSCs derived from 8 independent donations by ELISA in passage 3 cultures. […]
In another analysis, we quantified the levels of THBS1 produced in the AD-MSCs derived from 8 independent donations by ELISA in passage 3 cultures. […]

Compound | Effect on hypertrophic chondrocyte phenotype (expression of GADD45, CEBPb and MMP13) (50 ng/ml THBS1 added at day 7) | Effect on hypertrophic chondrocyte phenotype (expression of GADD45, CEBPb and MMP13) (30 ng/ml KYNA added at day 7)
THBS1: Thrombospondin 1, adhesive glycoprotein encoded by the THBS1 gene, added to differentiating MSCs at 50 ng/ml | sufficient to suppress the hypertrophic chondrocyte phenotype | 
Nc1ccccc1C(=O)CC(N)C(=O)O (centres unmarked) [KYNA, kynurenine] |  | able to suppress the hypertrophic chondrocyte phenotype
